Drawing on PubChem BioAssay AID743237 (The Scripps Research Institute Molecular Screening Center, 2013), this text covers IC50 for nine compounds.

SMILES strings stand for the structures. Activity calls are given as the source filed them. How the calls were made is not given here.

The assay relates to Galpha16-expressing cells, calcium fluorescence, counterscreen. Put plainly: Ga16 cell calcium inhibition, concentration series – fluorescence, dose response, counter-screen for TAAR1 antagonist project, late-stage follow-up (AID 743237). A general note: A counterscreen serves to expose hits that act by an unwanted route or on another target.
By IC50 is commonly meant the point on the concentration scale where inhibition reaches its midpoint. Consider `CCCCC(=O)Nc1ccc(C(=O)Nc2ccc(S(=O)(=O)N3CCCC3)cc2)cc1`, for which the IC50 was > 29.9 µM (inactive).
The same measure for `CC(=O)c1ccc(NC(=O)c2ccc(COc3ccccc3[N+](=O)[O-])o2)cc1`: > 29.9 µM (inactive); for `COc1cc(NC(=O)c2cc3ccccc3o2)c(OC)cc1Cl`: > 29.9 µM (inactive); for `Cc1coc(NC(=O)CSc2nc(-c3ccc(Cl)cc3)cc(C(F)(F)F)c2C#N)n1`: > 29.9 µM (inactive).
For `CCOC(=O)C1CCCN(c2c(C(=O)c3ccccc3)cnc3ccc(OC)cc23)C1` (centres undefined), the IC50 is > 29.9 µM (inactive).
The same measure for `COc1cccc(-c2nn(-c3ccccc3)cc2C(=O)Nc2nccs2)c1`: > 29.9 µM (inactive).
The same measure for `Cc1ccc(CSCC(=O)Nc2cc(S(=O)(=O)N3CCOCC3)ccc2OCC(F)(F)F)cc1`: > 29.9 µM (inactive).
The same measure for `Cc1cccc(C(C#N)c2nc3ccccc3nc2C(F)(F)F)c1` (centres undefined): > 29.9 µM (inactive).
As to `O=C(NCCn1cc(SCc2ccccc2F)c2ccccc21)c1c(F)cccc1F`, the IC50 was > 29.9 µM (inactive).
